According to US20080194522A1, “Development of Fluorogenic Substrates For Monoamine Oxidases (Mao-A and Mao-B)” (priority 2004, published 2008):

Columns and labels:
[1] = Solubility in aqueous solution; type: physicochemical; settings: in words
[2] = Fluorescence switch / apparent fluorescence increase, product versus substrate; type: physicochemical
Method: Apparent fluorescence increase was calculated by comparing the slopes (arbitrary fluorescence units/μM) of standard curves of chemically synthesized product and substrate concentration versus fluorescence intensity. Calculation of the apparent fluorescence increase is shown below for probe 9, which has a 21000% apparent fluorescence increase in emission intensity at λem=524 nm. The constants fP and fS were calculated from the slope of a line of fluorescence intensity versus concentration of chemically synthesized product indole 10 and substrate 9, respectively. These slopes were obtained from calibration curves of at least five concentrations of 9 and 10 in phosphate buffer (pH 7.4). The preparations of the compounds in mitochondrial assay buffer have negligible effects on fS and fP.

[3] = Photophysical characterization (absorbance, extinction coefficient, emission, quantum yield); type: physicochemical
Method: Extinction coefficients were the average of three independent determinations of three different readings from the lowest energy transition at three concentrations. Quantum yields are the average of three determinations of both quantum yield standard 9,10-diphenylanthracene and the synthesized coumarines at 340 nm unless otherwise indicated.
All spectra were recorded in 100 mM sodium phosphate (pH 7.4) unless otherwise indicated. Recorded λmax is that of the longest wavelength transition. Extinction coefficients were reported as the average of at least three independent preparations of the probes. Fluorescence measurements were taken on a Jobin Yvon Fluorolog fluorescence spectrofluorometer (slits 3, HV 750) in 100 mM sodium phosphate pH 7.4 buffer unless otherwise indicated. Quantum yields were measured relative to 9,10 diphenylanthracene in EtOH.4 Reported quantum efficiencies are the average of at least three independent preparations of the probes.
The extinction coefficient ε relates the absorbance of a compound to its concentration as expressed in Beer's law (A=εbc where A is absorbance, b is pathlength, and c is concentration). Extinction coefficients were the average of three independent determinations of three different readings of absorbance from the lowest energy transition at three concentrations. The quantum yield of fluorescence is the fraction of absorbed photons that lead to fluorescence; the number of photons fluoresced divided by the number of photons absorbed. To obtain the quantum yields of the synthesized coumarines their efficiency was compared to standard 9,10-diphenylanthracene at 340 nm in three different determinations. The effect of different solvents on the fluorescence of the compounds was also tested. The compounds were dissolved in methanol, chloroform and toluene and their emissions spectrum was taken.

Chemical stability = settings: in words
MAO-A = target: T1, MAO-A (Homo sapiens, UniProt P21397); assay: Monoamine oxidase A substrate assay, human placenta mitochondria, fluorescence detection of indole product
T1 sequence (P21397 1-527): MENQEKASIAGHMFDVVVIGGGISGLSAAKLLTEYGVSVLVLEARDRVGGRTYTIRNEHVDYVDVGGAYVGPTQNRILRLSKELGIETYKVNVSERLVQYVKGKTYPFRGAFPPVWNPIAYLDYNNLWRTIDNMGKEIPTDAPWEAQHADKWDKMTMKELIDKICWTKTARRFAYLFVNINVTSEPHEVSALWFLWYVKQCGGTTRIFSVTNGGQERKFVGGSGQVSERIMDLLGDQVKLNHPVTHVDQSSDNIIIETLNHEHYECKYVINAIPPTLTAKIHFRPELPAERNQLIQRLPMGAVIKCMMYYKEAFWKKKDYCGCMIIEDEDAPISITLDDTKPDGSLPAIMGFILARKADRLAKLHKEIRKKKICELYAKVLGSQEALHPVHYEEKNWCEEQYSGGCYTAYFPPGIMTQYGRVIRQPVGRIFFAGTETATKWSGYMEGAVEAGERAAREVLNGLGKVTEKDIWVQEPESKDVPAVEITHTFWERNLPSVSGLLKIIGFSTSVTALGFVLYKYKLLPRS

MAO-B = target: T2, MAO-B (Bos taurus, UniProt P56560); assay: Monoamine oxidase B substrate assay, beef liver mitochondria, fluorescence detection of indole product
T2 sequence (P56560 1-520): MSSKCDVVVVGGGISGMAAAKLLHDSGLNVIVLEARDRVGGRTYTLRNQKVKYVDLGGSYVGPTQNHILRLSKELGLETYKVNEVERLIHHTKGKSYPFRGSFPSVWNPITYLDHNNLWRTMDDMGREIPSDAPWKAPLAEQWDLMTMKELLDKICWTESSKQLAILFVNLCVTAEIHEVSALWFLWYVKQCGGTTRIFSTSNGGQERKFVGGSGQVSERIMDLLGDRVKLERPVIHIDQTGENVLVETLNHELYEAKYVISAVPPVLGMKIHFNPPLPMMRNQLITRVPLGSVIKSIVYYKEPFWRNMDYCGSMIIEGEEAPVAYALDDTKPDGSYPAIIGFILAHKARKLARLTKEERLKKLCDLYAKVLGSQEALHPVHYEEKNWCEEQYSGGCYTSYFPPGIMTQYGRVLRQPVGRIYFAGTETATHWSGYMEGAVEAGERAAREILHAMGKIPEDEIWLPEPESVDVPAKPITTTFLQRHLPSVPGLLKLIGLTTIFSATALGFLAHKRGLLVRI

[4] = 24-hour incubation, room temperature, pH 7.4

Row | SMILES | solubility in aqueous solution [1] | fluorescence emission intensity increase, indole/pyrrolocoumarin versus aniline/aminocoumarin [2] | emission wavelength [3] | fluorescence, in words ([3]; aqueous / phosphate buffer) | chemical stability (Chemical stability) | enzyme-catalyzed conversion of diamine to indole (MAO-A; [4]) | kcx (MAO-A; Table 6, Monoamine Oxidase A) | substrate quality for MAO-A (MAO-A; in words) | Φ ([3]; Table 2, in water, relative to 9,10-diphenyl anthracene (excited at 340 nm)) | ε (M^−1cm^−1) ([3]; Table 2 diamines, in water) | λmax (nm) ([3]; Table 2 diamines, in water) | enzyme-catalyzed conversion of diamine to indole (MAO-B; [4]) | kcx (MAO-B; Table 6, Monoamine Oxidase B) | substrate quality for MAO-B (MAO-B; in words)
1 | CCN(CC)c1ccc2c(C)c(-c3ccc4[nH]ccc4c3)c(=O)oc2c1 [Probe 17, 7-Diethylamino-3-(1H-indol-5-yl)-4-methyl-chromen-2-one] | reasonably soluble | 12 fold | 475 nm | highly fluorescent | chemically and photo-physically stable | – | – | – | – | – | – | – | – | –
2 | NCCc1cc2oc(=O)ccc2cc1N [III] | – | – | – | – | – | significant conversion | 0.475 min⁻¹ | good substrate for MAO-A | 0.0017 | 2,000 ± 100 M^−1cm^−1 | 352 nm | significant conversion | 20.62 min⁻¹ | good substrate for MAO-B
